SMILES strings stand for the structures.

For one assay, the system named is human PIV type 3. Put plainly: Parainfluenza virus-3 (PIV-3) plaque assay in MA-104 cells. The format is cell-based. Conditions: MA104, 72 hours infection. As for the experimental part: MA-104 cells were grown in 24-well plates to a confluency of 90% in the presence of minimal essential medium (MEM) supplemented with 10% fetal bovine serum and antibiotics (C-EMEM). The cells were then washed twice with non-complete minimal essential medium (NC-EMEM). Test articles were dissolved in DMSO to a stock concentration of 10 mM. An aliquot of 0.5 mL of the test article at various concentrations was then inoculated in triplicate wells and incubated for 60 minutes at 37° C. with 5% CO2 for the diffusion of test article into MA-104 cells. […] An aliquot of 0.1 mL was then inoculated into all the wells except for the negative and test article toxicity control wells. Upon infection, the plates were incubated for 72 hours at 37° C. at 5% CO2. After incubation, the plates were examined under microscopy to record cytotoxicity. The supernatants collected for viral quantification using a standard plaque assay using MA-104 cells as the indicator cells. To perform the plaques assay, MA-104 cells were grown to confluence in 24-well plates. The cells were washed with serum-free medium prior to inoculation of duplicate wells with serial 10-fold dilutions of supernatant sample. After 1 hour incubation at 37° C., the samples were aspirated and 1.0 mL of methyl cellulose overlay media was added to each well. […]

Assay [1] relates to human parainfluenza virus 3 (hPIV3, ATCC: VR-93). Put plainly: Parainfluenza virus-3 (PIV-3) RT-PCR assay in A549 cells. Type of assay: cell-based. Conditions: Human respirovirus 3, 168 h, hPIV3 MOI 0.1, 7 days after infection.
The next assay relates to hPIV3-eGFP. Put plainly: microbe, parasite or virus in culture. The format is cell-based, human parainfluenza virus 3. Conditions: Human respirovirus 3, A549, 72 h.
Assay [2] deals with Influenza strain A/WSN/33 (H1N1). The assay can be described thus: microbe, parasite or virus in culture. Type of assay: cell-based. Conditions: A549, 20 h, read-out: % Inhibition.
The subject of a further assay is human metapneumovirus. The assay can be described thus: Human metapneumovirus (hMPV) TCID50 assay in LLC-MK2 cells. The format is cell-based. Conditions: 168 h, 7 days infection. As for the experimental part: LLC-MK2 cells were grown in 24-well plates to a confluency of 90% in the presence of minimal essential medium (MEM) supplemented with 10% fetal bovine serum and antibiotics (C-EMEM). The cells were then washed twice with non-complete minimal essential medium (NC-EMEM). Test articles were dissolved in DMSO to a stock concentration of 10 mM. An aliquot of 0.5 mL of the test article at various concentrations was then inoculated in triplicate wells and incubated for 60 minutes at 37° C. with 5% CO2 for the diffusion of test article into LLC-MK2 cells. […] An aliquot of 0.1 mL was then inoculated into all the wells except for the negative and test article toxicity control wells. Upon infection, the plates were incubated for 7 days at 37° C. at 5% CO2. After incubation, the plates were examined under microscopy to record cytotoxicity. The supernatants collected for viral quantification using a standard TCID50 assay using LLC-MK2 cells as the indicator cells. The data was analyzed with Prism software with EC50 defined as drug concentration that reduced the viral load 50% from the viral control (VC).

Another assay deals with RSV A2 (ATCC: VR-1540). The assay can be described thus: RSV RT-PCR based assay in HEp-2 cells. Type of assay: cell-based. Conditions: human respiratory syncytial virus, 96 h; RT-PCR assay, HEp-2 cells, RSV A2 MOI 0.1, 4 days after infection; read-out: EC50.
For the next assay, the target named is RSV polymerase (Human respiratory syncytial virus A, UniProt P28887). Put plainly: biochemical.
Sequence of RSV polymerase (P28887 whole entry, looked up): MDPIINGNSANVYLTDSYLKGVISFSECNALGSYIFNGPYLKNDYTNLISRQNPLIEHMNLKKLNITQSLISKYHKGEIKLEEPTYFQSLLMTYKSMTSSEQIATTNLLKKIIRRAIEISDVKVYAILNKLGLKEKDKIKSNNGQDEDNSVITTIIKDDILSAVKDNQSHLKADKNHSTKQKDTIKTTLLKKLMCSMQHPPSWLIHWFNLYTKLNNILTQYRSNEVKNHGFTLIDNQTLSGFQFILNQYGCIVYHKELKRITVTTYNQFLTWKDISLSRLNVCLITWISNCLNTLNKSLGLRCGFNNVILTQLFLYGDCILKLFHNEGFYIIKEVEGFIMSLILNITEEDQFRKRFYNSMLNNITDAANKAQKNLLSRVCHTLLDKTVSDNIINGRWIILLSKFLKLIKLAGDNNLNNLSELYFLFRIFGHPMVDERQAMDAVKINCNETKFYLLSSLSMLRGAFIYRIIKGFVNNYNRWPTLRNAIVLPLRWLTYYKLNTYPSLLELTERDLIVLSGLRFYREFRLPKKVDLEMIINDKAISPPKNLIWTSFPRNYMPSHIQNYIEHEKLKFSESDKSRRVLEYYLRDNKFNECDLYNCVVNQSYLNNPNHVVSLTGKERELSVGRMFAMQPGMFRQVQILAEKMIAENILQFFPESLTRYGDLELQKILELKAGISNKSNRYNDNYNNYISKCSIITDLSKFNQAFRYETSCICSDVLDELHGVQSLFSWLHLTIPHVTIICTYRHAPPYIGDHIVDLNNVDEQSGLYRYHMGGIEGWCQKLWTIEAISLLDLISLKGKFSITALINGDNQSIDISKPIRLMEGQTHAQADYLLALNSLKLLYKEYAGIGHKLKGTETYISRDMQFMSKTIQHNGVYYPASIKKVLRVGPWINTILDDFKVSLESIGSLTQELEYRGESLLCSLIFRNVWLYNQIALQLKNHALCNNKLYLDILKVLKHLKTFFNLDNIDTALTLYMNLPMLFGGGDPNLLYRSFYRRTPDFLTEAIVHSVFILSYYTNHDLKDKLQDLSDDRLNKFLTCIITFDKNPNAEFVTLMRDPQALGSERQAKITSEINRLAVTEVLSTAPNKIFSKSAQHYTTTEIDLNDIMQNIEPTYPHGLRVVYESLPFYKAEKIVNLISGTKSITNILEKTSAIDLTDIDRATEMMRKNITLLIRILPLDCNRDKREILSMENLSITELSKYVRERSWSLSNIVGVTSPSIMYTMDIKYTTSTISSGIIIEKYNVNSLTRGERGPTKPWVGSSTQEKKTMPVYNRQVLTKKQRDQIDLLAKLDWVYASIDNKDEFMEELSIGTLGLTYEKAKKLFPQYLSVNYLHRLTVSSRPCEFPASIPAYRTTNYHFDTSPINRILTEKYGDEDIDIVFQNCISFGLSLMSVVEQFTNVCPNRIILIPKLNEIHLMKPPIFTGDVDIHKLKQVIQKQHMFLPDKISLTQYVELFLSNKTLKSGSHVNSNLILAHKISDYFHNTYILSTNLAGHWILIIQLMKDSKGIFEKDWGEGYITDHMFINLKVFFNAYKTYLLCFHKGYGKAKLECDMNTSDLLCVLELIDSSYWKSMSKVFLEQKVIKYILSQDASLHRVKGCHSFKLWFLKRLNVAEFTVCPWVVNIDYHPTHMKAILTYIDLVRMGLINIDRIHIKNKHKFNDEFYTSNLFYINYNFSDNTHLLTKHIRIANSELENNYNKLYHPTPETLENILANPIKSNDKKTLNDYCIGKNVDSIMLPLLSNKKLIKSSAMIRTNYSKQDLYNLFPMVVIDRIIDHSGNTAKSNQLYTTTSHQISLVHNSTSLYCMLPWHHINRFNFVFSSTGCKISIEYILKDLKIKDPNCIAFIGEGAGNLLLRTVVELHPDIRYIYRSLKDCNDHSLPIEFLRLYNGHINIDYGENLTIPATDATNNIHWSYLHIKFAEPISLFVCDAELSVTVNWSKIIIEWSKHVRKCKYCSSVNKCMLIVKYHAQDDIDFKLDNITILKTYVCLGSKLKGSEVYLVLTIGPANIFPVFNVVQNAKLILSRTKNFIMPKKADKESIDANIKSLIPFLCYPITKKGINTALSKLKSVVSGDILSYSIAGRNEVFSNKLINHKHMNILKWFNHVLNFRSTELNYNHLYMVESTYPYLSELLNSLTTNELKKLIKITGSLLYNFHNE

As for `CC[C@]1(CO)O[C@@H](n2ccc(N)nc2=O)[C@H](F)[C@@H]1O` [Compound 3a], the EC50 was under 20 µM in the assay with human PIV type 3; under 20 µM in assay [1]; under 20 µM with hPIV3-eGFP; 100 to 250 µM in assay [2]; under 20 µM in the assay with human metapneumovirus; under 1 µM in the assay on RSV A2 (ATCC: VR-1540).
As for `C=C[C@]1(CO)O[C@@H](n2ccc(N)nc2=O)[C@H](F)[C@@H]1O` [Compound 4a], the EC50 with hPIV3-eGFP was over 100 µM; in assay [2], 100 to 250 µM; with RSV A2 (ATCC: VR-1540), 10 to 100 µM.
With `Nc1ccn([C@@H]2OC(CO)(CO)[C@@H](O)[C@H]2F)c(=O)n1` [Compound 6a], the results for the EC50 (in assay [1]; in the assay with hPIV3-eGFP; in assay [2]) were over 100 µM, over 100 µM and 100 to 250 µM, respectively.
Turning to `Nc1ccn([C@@H]2O[C@@](CO)(CCl)[C@@H](O)[C@H]2F)c(=O)n1` [Compound 7a], the EC50 was under 20 µM with human PIV type 3; under 20 µM in assay [1]; under 20 µM with hPIV3-eGFP; 100 to 250 µM in assay [2]; under 20 µM in the assay with human metapneumovirus; under 1 µM in the assay on RSV A2 (ATCC: VR-1540).
With `C[C@]1(CO)O[C@@H](n2ccc(N)nc2=O)[C@H](F)[C@@H]1O` [Compound 9a], the EC50 in assay [1] is over 100 µM; with hPIV3-eGFP, over 100 µM; in assay [2], 100 to 250 µM; in the assay with RSV A2 (ATCC: VR-1540) it was 10 to 100 µM.
`CO[C@]1(CO)O[C@@H](n2ccc(N)nc2=O)[C@H](F)[C@@H]1O` [Compound 22a]: the EC50 in assay [1] was over 100 µM; in the assay on hPIV3-eGFP, over 100 µM; in assay [2], 100 to 250 µM; in the assay on RSV A2 (ATCC: VR-1540), 10 to 100 µM.
With `Nc1ccn([C@@H]2O[C@@](CO)(CF)[C@@H](O)[C@H]2F)c(=O)n1` [Compound 23a], the EC50 in assay [1] is over 100 µM; with hPIV3-eGFP it was over 100 µM; in assay [2], 100 to 250 µM; in the assay with RSV A2 (ATCC: VR-1540), under 1 µM.
For the compound `CC(F)[C@]1(CO)O[C@@H](n2ccc(N)nc2=O)[C@H](F)[C@@H]1O` (stereo partly shown) [Compound 40a], the EC50 (in assay [1]; with hPIV3-eGFP) was over 100 µM throughout.
As for `COC[C@]1(CO)O[C@@H](n2ccc(N)nc2=O)[C@H](F)[C@@H]1O` [Compound 43a], the EC50 (in assay [1]; in the assay with hPIV3-eGFP) was over 100 µM throughout.
Take `CSC[C@]1(CO)O[C@@H](n2ccc(N)nc2=O)[C@H](F)[C@@H]1O` [Compound 69a]: the EC50 was under 20 µM in assay [1], 20 to 100 µM in the assay on hPIV3-eGFP and under 1 µM in the assay with RSV A2 (ATCC: VR-1540).
Taken in the same sequence, the figures for `Nc1ccn([C@@H]2O[C@@](CO)(CBr)[C@@H](O)[C@H]2F)c(=O)n1` [Compound 71a] were over 100 µM, over 100 µM and under 1 µM.
On to `Nc1ncnc2c1ncn2[C@@H]1O[C@](CF)(COP(=O)(O)OP(=O)(O)OP(=O)(O)O)[C@@H](O)[C@H]1F` [Compound 98c], for which, on RSV polymerase, the EC50 was under 2 µM.
For the compound `[N-]=[N+]=N[C@]1(CO)O[C@@H](n2ccc(N)nc2=O)[C@@H](O)[C@@H]1O` [Compound 113a], the EC50 (in assay [1]; in the assay with hPIV3-eGFP) was over 100 µM in each case.

The values are drawn from patent US10485815B2, “Substituted nucleosides, nucleotides and analogs thereof” (Alios BioPharma, Inc., priority 2012, dated 2019).
